These results are taken from US20220064170A1, “BICYCLIC HETEROCYCLIC DERIVATIVES AND THEIR USE AS PHARMACEUTICALS” (Prelude Therapeutics, Incorporated, priority 2018, published 2022).

T1 sequence (Q07820 whole entry): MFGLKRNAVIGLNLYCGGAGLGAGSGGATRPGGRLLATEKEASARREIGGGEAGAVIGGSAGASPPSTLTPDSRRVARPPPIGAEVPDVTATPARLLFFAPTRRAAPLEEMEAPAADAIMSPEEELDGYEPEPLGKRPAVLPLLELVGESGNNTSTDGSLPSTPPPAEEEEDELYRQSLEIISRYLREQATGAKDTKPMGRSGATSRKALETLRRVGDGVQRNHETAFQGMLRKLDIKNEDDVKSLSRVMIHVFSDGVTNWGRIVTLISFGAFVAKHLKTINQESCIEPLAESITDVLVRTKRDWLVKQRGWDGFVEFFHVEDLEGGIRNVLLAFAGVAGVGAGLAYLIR

The assay addresses T1, MCL-1 (Homo sapiens, UniProt Q07820).
T1 construct: purchased BPS Bioscience
The assay is described as follows: Cell Free Mcl-1:Bim affinity assay (Mcl-1 Bim), fluorescence polarization competition. It is filed as binding. Particulars: 15 nM MCL-1, 5 nM FITC-Bim peptide tracer, 1 hour at room temperature; Ki calculated from IC50 by Nikolovska-Coleska's equation; read-out: BIM_Ki. As to the method:
The binding affinity of each compounds was measured via fluorescence polarization competition assay, in which the compound competes the same binding site with the ligand, and thus lead to dose-dependent anisotropy reduction. The tracer ligand utilized was a fluorescein isothiocyanate labelled peptide (FITC-[…]) derived from Bim (GenScript).
The assay was carried out in black half-area 96-well NBS plate (Corning), containing 15 nM of MCL-1 (BPS Bioscience), 5 nM of FITC-Bim and 3-fold series diluted test compounds in a total volume of 50 uL of assay buffer (20 mM HEPES, 50 mM NaCl, 0.002% Tween 20 1 mM TCEP and 1% DMSO). The reaction plate was incubated for 1 hour at room temperature. The change of anisotropy is measured by Envision multimode plate reader (PerkinElmer) at emission wavelength 535 nm. Fluorescence polarization was calculated in mP unit and the percentage inhibition was calc. by % inhibition=100×(mPDMSO−mP)/(mPDMSO−mPPC), in which mPDMSO is the DMSO control, and mPPC is the positive control. IC50 values were determined from a 10-point dose response curve by fitting the percent inhibition against compound concentration using the GraphPad Prism software. The inhibition constant Ki was subsequently calculated according Nikolovska-Coleska's equation (Anal. Biochem., 2004, 332, 261),
Where [I]50 is the concentration of the free inhibitor at 50% inhibition, [L]50 is the concentration of the free labeled ligand at 50% inhibition, [P]0 is the concentration of the free protein at 0% inhibition, and Kd is the dissociation constant of the protein-ligand complex.
In the case of `Cc1c(-c2c(-c3ccc(F)cc3)cn3ncnc(N[C@H](Cc4ccccc4OCC4CC4)C(=O)O)c23)ccc(OCCN2CCN(C)CC2)c1Cl` (single isomer, unassigned) [Example 5], the Ki is over 12 µM.

In the case of `Cc1c(-c2c(-c3ccc(F)cc3)cn3ncnc(O[C@@H](Cc4ccccc4OCC4CC4)C(=O)O)c23)ccc(OCCN2CCN(C)CC2)c1Cl` (atropisomer, axis not shown; (Sa)) [Example 3, (2S)-2-[(5Sa)-5-[3-Chloro-2-methyl-4-[2-(4-methylpiperazin-1-yl)ethoxy]phenyl]-6-(4-fluoro-phenyl)pyrrolo[2,1-f][1,2,4]triazin-4-yl]oxy-3-[2-(cyclopropylmethoxy)phenyl]propanoic acid], the Ki is over 12 µM.

With `Cc1c(-c2c(-c3ccc(F)cc3)cn3ncnc(O[C@H](Cc4ccccc4OCC4CC4)C(=O)O)c23)ccc(OCCN2CCN(C)CC2)c1Cl` (atropisomer, axis not shown; (Sa)) [Example 1, (2R)-2-[(5Sa)-5-[3-Chloro-2-methyl-4-[2-(4-methylpiperazin-1-yl)ethoxy]phenyl]-6-(4-fluoro-phenyl)pyrrolo[2,1-f][1,2,4]triazin-4-yl]oxy-3-[2-(cyclopropylmethoxy)phenyl]propanoic acid], the Ki is 0.205 µM.

Take “(2S)-2-{[(5Ra)-5-[3-Chloro-2-methyl-4-[2-(4-methylpiperazin-1-yl)ethoxy]phenyl]-6-(4-fluorophenyl)pyrrolo[2,1-f][1,2,4]triazin-4-yl]amino}-3-[2-(cyclopropylmethoxy)phenyl]propanoic acid [Example 6]”: the Ki was over 12 µM.

On to `COc1ccccc1-c1nccc(COc2ccccc2C[C@H](Nc2ncnn3cc(-c4ccc(F)cc4)c(-c4ccc(OCCN5CCN(C)CC5)c(Cl)c4C)c23)C(=O)O)n1` (racemic) [Example 11], for which the Ki is 0.382 µM.

As for `Cc1c(-c2c(-c3ccc(F)cc3)cn3ncnc(O[C@@H](Cc4ccccc4OCC4CC4)C(=O)O)c23)ccc(OCCN2CCN(C)CC2)c1Cl` (atropisomer, axis not shown) [Example 2, (2S)-2-[(5R^a)-5-[3-Chloro-2-methyl-4-[2-(4-methylpiperazin-1-yl)ethoxyl]phenyl]-6-(4-fluoro-phenyl)pyrrolo[2,1-f][1,2,4]triazin-4-yl]oxy-3-[2-(cyclopropylmethoxy)phenyl]propanoic acid], the Ki is over 12 µM.

With `Cc1c(-c2c(-c3ccc(F)cc3)cn3ncnc(O[C@H](Cc4ccccc4OCC4CC4)C(=O)O)c23)ccc(OCCN2CCN(C)CC2)c1Cl` (atropisomer, axis not shown; (Ra)) [Example 4, (2R)-2-[(5Ra)-5-[3-Chloro-2-methyl-4-[2-(4-methylpiperazin-1-yl)ethoxy]phenyl]-6-(4-fluoro-phenyl)pyrrolo[2,1-f][1,2,4]triazin-4-yl]oxy-3-[2-(cyclopropylmethoxy)phenyl]propanoic acid], the Ki is 0.0113 µM.

With `Cc1c(-c2c(-c3ccc(F)cc3)cn3ncnc(N[C@H](Cc4ccccc4OCC4CC4)C(=O)O)c23)ccc(OCCN2CCN(C)CC2)c1Cl` (single isomer, unassigned) [Example 7], the Ki is 0.0777 µM.

As for `Cc1c(-c2c(-c3ccc(F)cc3)cn3ncnc(N[C@@H](Cc4ccccc4OCC4CC4)C(=O)O)c23)ccc(OCCN2CCN(C)CC2)c1Cl` (atropisomer, axis not shown; (Sa)) [Example 8, (2S)-2-{[(5Sa)-5-[3-Chloro-2-methyl-4-[2-(4-methylpiperazin-1-yl)ethoxy]phenyl]-6-(4-fluorophenyl)pyrrolo[2,1-f][1,2,4]triazin-4-yl]amino}-3-[2-(cyclopropylmethoxy)phenyl]-propanoic acid], the Ki is over 12 µM.

In the case of `COc1ccccc1-c1nccc(COc2ccccc2C[C@H](Nc2ncnn3cc(-c4ccc(F)cc4)c(-c4ccc(OCCN5CCN(C)CC5)c(Cl)c4C)c23)C(=O)O)n1` (single isomer, unassigned) [Example 12], the Ki was 0.99 µM.

For `COc1ccccc1-c1nccc(COc2ccccc2C[C@@H](Nc2ncnn3cc(-c4ccc(F)cc4)c(-c4ccc(OCCN5CCN(C)CC5)c(Cl)c4C)c23)C(=O)O)n1` (atropisomer, axis not shown; (Ra)) [Example 13, (2R)-2-{[(5Ra)-5-{3-Chloro-2-methyl-4-[2-(4-methylpiperazin-1-yl)ethoxy]phenyl}-6-(4-fluorophenyl)pyrrolo[2,1-f][1,2,4]triazin-4-yl]amino}-3-(2-{[2-(2-methoxyphenyl)pyrimidin-4-yl]methoxy}phenyl)propanoic acid], the Ki is 0.0007 µM.
